According to paper PMC7927014, “Novel Small Molecule Hsp90/Cdc37 Interface Inhibitors Indirectly Target K-Ras-Signaling” (Cancers, 2021):
Where a name gives a salt, the structure may show the parent alone.

Experiments:
[1] = target: T1, Hsp90/Cdc37 (Homo sapiens, UniProt P07900); test: Hsp90/Cdc37 split Renilla luciferase assay, full length Hsp90 (cell lysate; IC50 and 20 μM validation); format: biochemical; details: for IC50: full length Hsp90, split Renilla luciferase assay, cell lysate; for normalized RLU / Average RLU: MolPort Screening-3, tested concentration of drugs 20 μM; for normalized RLU: RLU normalized to DMSO (=1.00); for Average RLU: average of 3 wells (DMSO 248028)
T1 construct: The Hsp90/Cdc37 split Renilla luciferase assay using the full length Hsp90 for the compound screening was described previously; expressed in transfected cells; host or cells: HEK293 EBNA cells, cleared lysates
Procedure: (§1) In the second in silico screening of the FIMM database, we employed the four identified chemical scaffolds (Figure S2B) for the visual inspection of the FIMM compound library. […] All of the purchased compounds were validated in vitro at 20 μM using the split Renilla luciferase assay.
(§2) The Hsp90/Cdc37 split Renilla luciferase assay using the full length Hsp90 for the compound screening was described previously. […] After 48 h, the cells were trypsinized and washed with PBS. The harvested cells were lysed in 1 mL of the 1x lysis buffer provided in the Renilla Luciferase Reporter Assay System Kit from Promega (cat. E2820), and were incubated on ice for 10 min. The cell lysates were then cleared by centrifugation at 13,000× g for 1 min. […] After this, the screening/test compounds or DMSO—as indicated—were added to each well. In total, 5 µL NRL-Hsp90- or NRL-N-Hsp90-lysate was added to each well, one row at a time. Subsequently, the plate was incubated for 5 min at room temperature (RT). […] Just before the reading, 20 µL assay buffer containing 2× Renilla luciferase substrate (coelenterazine) was added. For the FIMM screening, sample wells were read on a PHERAstar plate reader (BMG LABTECH) at a gain level of 4000, after 10 s shaking, using a hypomorph of NRL-Hsp90. For the subsequent validations of the compounds, sample wells with the above-described assay constructs were read using a synergy H1 Hybrid Multi-Mode reader (BioTek) in the luminescence detection mode, as described previously in detail.

[2] = target: T2, N-Hsp90/Cdc37 (Homo sapiens, UniProt P07900); test: N-Hsp90/Cdc37 split Renilla luciferase assay (N-terminal Hsp90 fragment, residues 1-223); format: biochemical; details: cell lysate
T2 construct: only the N-terminal ATP-ase domain of Hsp90 (N-Hsp90, residues 1-223); expressed in transfected cells; host or cells: HEK293 EBNA cells, cleared lysates
Procedure: as §2

[3] = tested on: Hsp90/Cdc37; test: FIMM screening in split Renilla luciferase assay with hypomorphic NRL-Hsp90 construct, 20 μM; format: biochemical; details: for normalized RLU (FIMM Screening-2, scaffold based) / normalized RLU (FIMM Screening-1): DMSO = 1.00; for Average RLU (FIMM Screening-2, scaffold based) / Average RLU (FIMM Screening-1): mean of 3 wells; for Average RLU (FIMM Screening-2, scaffold based): DMSO 51006; for Average RLU (FIMM Screening-1): DMSO 50019
Procedure: as §1, §2

[4] = target: T3, Hsp90α (N-terminal) (Homo sapiens, UniProt P07900); test: Hsp90 N-terminal ATP-binding site competition assay (FITC-geldanamycin fluorescence polarization); details: 20 μM compound
T3 construct: purchased BPS Bioscience 50298
Procedure: The reaction was initiated by adding 35 ng/μL purified recombinant Hsp90α, and was incubated at RT with slow shaking for 2 h. All of the reactions were performed in a black, low binding NUNC microtiter plate, included in the kit, and the total reaction volume was 50 μL. The enzyme control was measured without the test compound, and the enzyme background control was measured without the test compound or Hsp90α. […] All of the controls and the blank contained 10% DMSO, as did all of the samples of the test compounds. All of the samples were analyzed as duplicates. […] The blank value was subtracted from all of the other values, and the fluorescence polarization was determined as:(1) mP = ((III − I⊥)/(III+ I⊥)) × 1000 where III is the intensity of the parallel, and I┴ the intensity of the perpendicular polarized light.

[5] = tested on: HCC-44 cells; test: Tumorosphere assay (low adhesion, serum-free 3D spheroid culture); format: cell-based; details: HCC-44, 20 μM, 72 h
Procedure: (§3) Per well, 2000 cells were seeded in flat bottom 96-well suspension culture plates (cat. no. 655185, Cellstar, Greiner Bio-One) in 100 µL DMEM or RPMI media containing 1× B27 (cat. no. 17504044, Gibco, Thermo Fisher Scientific), 25 ng/mL EGF (cat. no. E9644, Sigma-Aldrich), and 25 ng/mL FGF (cat. no. RP-8628, Thermo Fisher Scientific), 20% MethoCult H4100 (cat. no. 04100, […] Technologies). After 2 days, 50 µL media containing 0.3% DMSO or 3× the concentration of the indicated compounds were added to the wells in a 1:2 dilution-series, starting at 100 µM. After 72 h of treatment, 10% (v/v) alamarBlue reagent (cat. no. DAL1100, Thermo Fisher Scientific) was added to each well. Then, the fluorescence intensity (excitation 560 nm and emission 590 nm) was measured after 4 h using a H1 Hybrid Multi-Mode reader (BioTek).

[6] = tested on: MDA-MB-231 cells; test: as above; format: cell-based; details: MDA-MB-231, 20 μM, 72 h
Procedure: as §3

[7] = tested on: MIA PaCa-2 cells; test: as above; format: cell-based; details: MIA PaCa-2, 20 μM, 72 h
Procedure: as §3

[8] = tested on: SK-BR-3 cells; test: as above; format: cell-based; details: SK-BR-3, 20 μM, 72 h
Procedure: as §3

IC50 [1] [µM] | IC50 [2] [µM] | normalized RLU (FIMM Screening-1) [3] | Average RLU (FIMM Screening-1) [3] [RLU] | Compound | also measured
41 ± 10 | 11 ± 1 |  |  | Cc1cc(OCC(=O)Nc2ccccc2C(=O)O)cc(C)c1Cl [×1127, 2-[2-(4-chloro-3,5-dimethylphenoxy)acetamido]benzoic acid] | normalized RLU (FIMM Screening-2, scaffold based) [3]: 0.66; Average RLU (FIMM Screening-2, scaffold based) [3]: 33660 RLU
 |  | 0.57 | 28274 | Enamine compound T6605315 [compound 5] | 
 |  | 0.48 | 24009 | Enamine compound T5807719 [compound 4] | 
177 ± 31 | 322 ± 50 | 0.56 | 28120 | Cc1ccc(Nc2ccc(C(=O)O)cc2N)cc1 [compound 7, 3-amino-4-(4-toluidino)benzoic acid] | 
 |  | 0.67 | 33633 | NC[C@@H]1O[C@H](O[C@H]2[C@@H](O)[C@H](O[C@@H]3[C@@H](O)[C@H](N)C[C@H](N)[C@H]3O[C@H]3O[C@H](CO)[C@@H](O)[C@H](O)[C@H]3N)O[C@@H]2CO)[C@H](N)[C@@H](O)[C@@H]1O [compound 6, Paromomycin sulfate, reference compound] | 
14.1 |  | 0.25 | 12688 | O=C(O[C@@H]1Cc2c(O)cc(O)cc2O[C@@H]1c1cc(O)c(=O)c2c(O)c(O)cc([C@H]3Oc4cc(O)cc(O)c4C[C@H]3O)c2c1)c1cc(O)c(O)c(O)c1 [compound 8, Theaflavin monogallates] | 
18 ± 2 | 14 ± 4 | 0.22 | 10978 | NC(CSS(=O)(=O)O)=NCCC12CC3CC(CC(O)(C3)C1)C2 [×7648, 1-[2-[(1-amino-2-sulfosulfanylethylidene)amino]ethyl]-3-hydroxyadamantane] | 
41 ± 8 | 94 ± 3 |  |  | O=C(CSS(=O)(=O)O)Nc1cccc(C(F)(F)F)c1 [×1625, [({[3-(trifluoromethyl)phenyl]carbamoyl}methyl)sulfanyl]sulfonate] | normalized RLU [1]: 0.47; Average RLU [1]: 117361 RLU; competition with FITC-geldanamycin (ATP-pocket binding, polarization signal) [4]: None of these four compounds displaced; effect on spheroid formation [5]: did not decrease; effect on spheroid formation [6]: did not decrease; effect on spheroid formation [7]: did not decrease; effect on spheroid formation [8]: did not decrease

The remaining lines, values behind:

Compound | IC50 [1] [µM] | IC50 [2] [µM] | normalized RLU (FIMM Screening-1) [3] | Average RLU (FIMM Screening-1) [3] [RLU] | also measured
O=C(O[C@@H]1Cc2c(O)cc(O)cc2O[C@@H]1c1ccc(O)c(O)c1)c1cc(O)c(O)c(O)c1 [M15, (2R,3R)-2-(3,4-dihydroxyphenyl)-5,7-dihydroxy-3,4-dihydro-2H-1-benzopyran-3-yl 3,4,5-trihydroxybenzoate (epicatechin gallate)] | 28 ± 4 | 4.8 ± 0.7 |  |  | normalized RLU [1]: 0.33; Average RLU [1]: 80961 RLU
O=C(O[C@@H]1Cc2c(O)cc(O)cc2O[C@@H]1c1cc(O)c(=O)c2c(O)c(O)cc([C@H]3Oc4cc(O)cc(O)c4C[C@H]3OC(=O)c3cc(O)c(O)c(O)c3)c2c1)c1cc(O)c(O)c(O)c1 [compound 2, Theaflavin 3,3-digallate] | 75 ± 26 | 81 ± 16 | 0.12 | 5883 | 
N=C(N)SCc1cc(=O)[nH]c(=O)[nH]1 [SC5, {[(2,6-dioxo-1,2,3,6-tetrahydropyrimidin-4-yl)methyl]sulfanyl}methanimidamide] |  |  |  |  | normalized RLU (FIMM Screening-2, scaffold based) [3]: 0.39; Average RLU (FIMM Screening-2, scaffold based) [3]: 19772 RLU
O=C(O)c1cc(S(=O)(=O)Nc2cccc(Cl)c2)ccc1O [SC22, 5-[(3-chlorophenyl)sulfamoyl]-2-hydroxybenzoic acid] |  |  |  |  | normalized RLU (FIMM Screening-2, scaffold based) [3]: 0.73; Average RLU (FIMM Screening-2, scaffold based) [3]: 37332 RLU
O=c1c(O)cc([C@H]2Oc3cc(O)cc(O)c3C[C@H]2O)cc2c([C@H]3Oc4cc(O)cc(O)c4C[C@H]3O)cc(O)c(O)c12 [compound 1, Theaflavin] | 29.3 |  | 0.25 | 12261 | 
O=C(O[C@@H]1Cc2c(O)cc(O)cc2O[C@@H]1c1cc(O)c(O)c(O)c1)c1cc(O)c(O)c(O)c1 [compound 3, Epigallocatechin gallate] | 88 ± 23 | 57 ± 14 | 0.45 | 22619 | 
O=C(CSc1nc2ccccc2s1)c1ccc(O)c(O)c1 [SC9, 2-(1,3-benzothiazol-2-ylsulfanyl)-1-(3,4-dihydroxyphenyl)ethan-1-one] | 72 ± 10 | 64 ± 9 |  |  | normalized RLU (FIMM Screening-2, scaffold based) [3]: 0.64; Average RLU (FIMM Screening-2, scaffold based) [3]: 32657 RLU
O=c1c(O)c(-c2ccc(O)c(O)c2)oc2cc(O)cc(O)c12 [×1742, 2-(3,4-dihydroxyphenyl)-3,5,7-trihydroxy-4H-chromen-4-one dihydrate (quercetin dihydrate)] |  |  |  |  | normalized RLU [1]: 0.40; Average RLU [1]: 100349 RLU; competition with FITC-geldanamycin (ATP-pocket binding, polarization signal) [4]: None of these four compounds displaced; effect on spheroid formation [5]: did not decrease; effect on spheroid formation [6]: significantly increased; effect on spheroid formation [7]: significantly increased; effect on spheroid formation [8]: did not decrease
